The values below come from a melting point compilation (Tetko et al.; mined from patent text by program, amines drawn as free bases though some values may be those of a salt).

SMILES strings stand for the structures.

As to `CCON1CCC(NC(=O)Cc2c(C)cc(C)cc2C)(C(=O)OC)CC1`, the melting point – broadly, the temperature of the solid-liquid transition – is 131 to 132 °C. For `C#CCOCC(CC)(OC)c1cccc(OCc2ccc3ccccc3c2)c1` (stereo not drawn) the value was 54 °C; for `O=C(c1ccccc1)N1CC2CSCC(C2)C1`, 95 to 96 °C. For `O=C(Nc1ccc(C(=O)O)c(O)c1)c1ccc(-c2ccccc2)cc1` the value was 266 °C. As for `CC(=O)NCC1CC(c2cc(F)c(N3CCN(C(=O)CO)CC3)c(F)c2)=NO1` (single isomer, unassigned; (-)), the figure is 220 to 221 °C; as for `OC(COc1ccc(-c2ccccc2I)cc1)CN1CCCC1` (stereo not drawn), 72 to 76 °C; as for `CC(=O)Nc1c(-c2ccccc2C)nc2c3ccccc3ccn12`, more than 270 °C.

For the compound `CC1=CC(=O)C(C)(N=Nc2ccc3ccccc3c2)O1` (stereo not drawn), the melting point was in the range of 76 to 77 °C.

As to `Cc1cscc1-c1nc(-c2c(F)cccc2Cl)nn1C`, the melting point fell in the range of 153 to 155 °C. As for `CN(C)CCCc1c[nH]c(-c2ccc(F)cc2)c1-c1ccncc1`, the figure is 177 to 179 °C; as for `Cc1oc(-c2ccccc2)nc1COc1ccc(CON=C(CC(N)=O)c2ccccc2)cc1`, 164 to 165 °C. For `Nc1cccc(-c2ccc(-c3ccccc3)cc2)c1N` the value was 203 to 206 °C. For `CCCCc1nc2cccc(C(=O)OC)c2n1Cc1ccc(-n2cccc2-c2nnn[nH]2)cc1` the value was 186 to 187 °C; for `CCOC(=O)c1c(N)c(C)c(C)n1C`, 63 to 64 °C.

In the case of `O=[N+]([O-])c1cccc2c(Cl)c(Br)cnc12`, the melting point lay within 135 to 136 °C. For `CCCCNc1c2c(nc3c1cnn3CC)CCc1ccccc1C2=O` the value was 91 to 93 °C; for `c1ccc(CN2C[C@@H]3Cc4cc5ccccc5n4C[C@@H]3C2)cc1` (relative stereo), 91 to 93 °C. Take `CN1CCC(c2n[nH]c3cc(Cl)ccc23)CC1`: the melting point lay within 211 to 213 °C.

Compound `Cc1cc(C)cc(C(=O)N[C@H](Cc2ccccc2)C(=O)N[C@@H](Cc2c[nH]c3ccccc23)C(=O)O)c1` returned a melting point of 95 to 98 °C.

With `CSc1nnc(C2(C)CC2)c(=O)n1N`, the melting point fell in the range of 115 to 116 °C. `COc1ccc(CN2C(=O)C3(COc4cc(O)c(C#N)cc43)c3ccccc32)cc1` (stereo not drawn) gave a melting point of 112 to 114 °C. The compound `C=CCN1CCN(C2=NC3(C=CC(=O)C=C3)C(Sc3ccccc3)=C2)CC1` displayed a melting point of 175 °C. For `COC(=O)COc1ccc2cc3c(c(-c4ccc(OC)cc4)c2c1)CNC3=O` the value was 202 to 203 °C; for `CCC12C=C(C(=O)OC)n3c4c(c5ccccc53)CCN(CCC1)C42` (stereo not drawn), 160 to 162 °C; for `CC1(C)CC(=O)C2=C(C1)NC1=C(C(=O)CC(C)(C)C1)C2c1ccc(Br)c([N+](=O)[O-])c1`, more than 300 °C. For `CN1CCN(c2c(CO)cnc3c(NC(=O)c4c(Cl)cccc4Cl)cccc23)C1=S`, the melting point was 253 to 254 °C. As for `CCOC(=O)c1ccc(NCc2cc(Br)ccc2OCc2ccccc2)c(N)c1`, the figure is 135 °C; as for `OC(CN1CCNC1=S)c1ccc(F)cc1` (stereo not drawn), 130 °C. In turn, `C=CCN1CCc2cc(OC)c(O)c3c2C1Cc1cc(OC)c(OC)cc1-3` (single isomer, unassigned; (+)) showed a melting point of 85 to 93 °C. For `CCOC(=O)c1cn(-c2ccc(F)cc2F)c2c(F)c(F)c(F)c(C)c2c1=O` the value was 152 to 154 °C. For `Cn1nc(C(F)(F)F)cc1N` the value was 100 to 101 °C. As for `CNS(=O)(=O)c1ccc(N2CCC(C(=O)OC)=Cc3cc(Br)ccc32)cc1`, the figure is 201 to 204 °C; as for `CS(=O)(=O)c1ccc(-c2ccccc2N)cc1`, 164 to 165 °C; as for `O=C(O)c1nc(C(Cl)(Cl)Cl)n(-c2cccc(C(F)(F)F)c2)n1`, 126 °C. In turn, `CC(=O)Nc1ccc(OCCOc2ncc(Cl)cn2)cc1` had a melting point of 160 °C. As for `CCN(CC)C(=O)[C@H]1CN2CC[C@H]1[C@H](NCc1cc(OC)ccc1OC)[C@@H]2C(c1ccccc1)c1ccccc1` (relative stereo), the figure is 153 to 154 °C; as for `CCOC(=O)C(=CNc1nc(C)c(C)s1)C(=O)OCC`, 82 to 83.5 °C; as for `Cn1cc(C(=O)NCCCO)c(Nc2ccc(Br)cc2F)cc1=O`, 78 to 83 °C. Compound `CCCCOC(=O)C(Cl)=Cc1cc(-n2c(=O)cc(C(F)(F)F)n(C)c2=O)ccc1Cl` returned a melting point of 109 to 110 °C. For `O=C1OC(=Cc2ccc(Cl)c([N+](=O)[O-])c2)c2ccccc21` the value was 198 to 204 °C. For `CCCN(CCC)C(=O)CN(C(=O)CNC(=O)Nc1cccc(C)c1)c1ccccc1` the value was 182 °C; for `COc1ccc2c(c1)CCC1C2CCC2(C)C(=NN(C)C)C(C)CC12` (stereo not drawn), 122 to 124 °C. `CCOc1nc(N(C)C)nc(=O)[nH]1` came in with a melting point of 215 to 216 °C. For `CC(=O)NCC1CN=C(c2ccccc2)c2cc(Cl)ccc2N1` (stereo not drawn) the value was 240 to 245 °C; for `COC(=O)c1cc(C(=O)OC)n(C(c2ccccc2)(c2ccccc2)c2ccccc2)n1`, 212 to 214 °C. Consider `O=C1CCCc2c(cccc2OCC2CO2)N1` (stereo not drawn), for which the melting point fell in the range of 121 to 123 °C. For `CCCCCCCc1ccc(C(=O)CCCCC(=O)O)cc1N` the value was 100 to 102 °C; for `CCCCOc1cc(/C=C(\OCC)C(=O)O)ccc1OCCc1ccc(N(C)S(=O)(=O)CCCC)cc1`, 144 °C. For `O=C(c1ccc(Cl)cc1)c1cccnc1N1CCCCC1=O` the value was 154 to 156 °C; for `O=C1NCCN1CCNc1cc(-c2ccncc2)c(-c2ccccc2)nn1`, 206 to 207 °C.

For the compound `Nc1ncnc2c1ncn2C1OC(C(O)C(=O)NC2CCCC2)C(O)C1O` (stereo not drawn), the melting point was 155 to 157 °C.

`C=CCn1c(=O)n(S(=O)(=O)c2ccc(Cl)cc2)c(=O)c2ccc(Cl)cc21` showed a melting point of 161 to 163 °C. For `O=c1sc2cc(Cl)ccc2n1CCCCl` the value was 131 to 132 °C; for `O=[N+]([O-])c1ccc(NN=CCCc2ccc(F)cc2)cc1`, 125 to 127 °C. As for `C#CCN(c1ccc(C(=O)NCc2cccc(C#N)c2)cc1)C1CCc2cc3nc(C)[nH]c(=O)c3cc21` (racemic), the figure is 260 °C. For `Nc1c(NC2CCc3ccccc32)[nH]c(=O)[nH]c1=O` (stereo not drawn) the value was more than 150 °C; for `CCOC(=O)c1cn(C2CC2)c2c(F)c(-c3cc(C)nc(C)c3)c(F)cc2c1=S`, 194 to 195 °C; for `FC(F)(F)c1cc2[nH]c(N3CCN(c4ncccc4Cl)CC3)nc2cc1Cl`, 209 to 211 °C. On to `CC(=O)c1sccc1CBr`, for which the melting point lay in the range of 62 to 64 °C. The compound `CCC[C@H](CO)Nc1nc(-c2ccc(Br)cc2)cs1` showed a melting point of 61 to 63 °C. As for `COc1ccc(C2=NN(c3ccccn3)C(=O)[C@H]3CC=CC[C@@H]23)cc1OC` (relative stereo), the figure is 147 to 148 °C; as for `CS(=O)(=O)c1ccc(-c2oc3ccccc3c(=O)c2-c2cccc(Cl)c2)cc1`, 195 to 196 °C; as for `CC1=C(C)C(=O)C(CCCCC#CCCCC#CC(=O)O)=C(C)C1=O`, 49 to 51 °C.
